# Measurements reported in patent publication US20210261528A1, “SALTS OF (S)-(5-CYCLOBUTOXY-2-METHYL-6-(1-(PIPERIDIN-4-YL)-1H-PYRAZOL-4-YL)-3,4-DIHYDROQUINOLIN-1(2H)-YL)(CYCLOPROPYL)METHANONE AND SOLID FORMS THEREOF” (FORMA Therapeutics, Inc., priority 2018, published 2021).
# Several values for one entry are separate records, joined by “and”; a condition that tells them apart may be missing. Identical values can stand only once. Entries after “also recorded” stand apart in the source; their conditions may differ.
# Experiments:
# Format in all cases: physicochemical
# [1] = Hygroscopicity evaluation by Dynamic Vapor Sorption (DVS) with XRPD of the solids after DVS; details: for solid form after the DVS test: XRPD of solids after DVS; for hygroscopicity (DVS): absorption up to 80% RH; for hygroscopicity (DVS) / behaviour at high humidity (DVS): 25° C.; for behaviour at high humidity (DVS): >60% RH
# Method: Dynamic Vapor Sorption (DVS) was obtained using a Surface Measurement Systems (SMS) DVS Intrinsic. The relative humidity at 25° C. were calibrated against deliquescence point of LiCl, Mg (NO3)2 and KCl.
# [2] = Aqueous solubility estimation of Compound 2 Form G, Form O and Form I at RT (Example 13, Table 27); details: for Observation Initial / Observation 2 hrs: about 3 mg in 50 μL water; for Observation 2 hrs: stirred 2 hrs
# Method: Aqueous solubility tests at RT were conducted on the two potential anhydrates, Form G and O, and the hydrated Form I. About 3 mg of each form was weighed into a 2-mL vial. […] of water was added and stirred thoroughly at RT with the speed of 800 RPM.
# [3] = Critical aw between Compound 2 Form G and Form I, slurry turnover in H2O/IPAc (Example 12, Table 26); details: for Final Form: 24 hrs
# Method: To investigate the critical aw between hydrated Form I and the stable anhydrate, Form G, slurry turnover of Form I and Form G was conducted in a co-solvent system (H2O/IPAc) with different aw at RT and 50° C. Similar mass of Form G and Form I were added into a 2-mL vial, followed by adding solvent and stirring at RT or 50° C. for 24 hrs. The solids obtained were analyzed by XRPD to confirm the form change.
# [4] = Chemical stability by HPLC-UV at 275 nm and 254 nm (Table 9)
# Method: High Pressure Liquid Chromatography (HPLC) data were obtained according to Tables 6 or 7, below:
# A standard stock was dissolved with diluent in a volumetric flask (e.g., 25 mg in 25 mL). This stock was vortexed and sonicated 10 sec to dissolve, and then diluted 1:10, 1:4, and 1:2 either in volumetric flasks or in HPLC vials to generate a standard curve. […] Where appropriate, a blank was created to accurately replicate the matrix of the analytical sample, and peaks appearing in the blank were identified before integration and quantification using Chemstation software.
# The chemical stability of Succinate Form A was determined using HPLC-UV at 275 nm and 254 nm.
# The chemical stability of Form G was determined using HPLC-UV at 275 nm and 254 nm.
# [5] = Slurry competition between Compound 2 Form G and Form O for stability evaluation (Example 10, Table 24); details: 24 hours
# Method: The slurry competition experiments between the two anhydrates, Form G and Form O, were performed in two solvents, IPAc and MTBE, at RT and 50° C. for stability evaluation. Form O was dissolved in IPAc and MTBE respectively to get saturated solutions. Then, similar masses of Form G and Form O were added into a 2-mL vial, upon which the corresponding saturated solution was added to give the slurry, which was stirred at RT or 50° C. for 24 hours. The solids collected were analyzed by XRPD to confirm the form change.
# [6] = Slurry turnover of Compound 2 Form B, Form I and Form G (Example 11, Table 25); details: 24 hours
# Method: To further study the form identity of Form B and Form I, slurry turnover experiments were performed in two solvents with the addition of Form G. Form B was dissolved in IPAc and MTBE respectively to get saturated solutions. Similar mass of Form B, G and I were weighed into a 2-mL vial, upon which the corresponding saturated solution was added to give the slurry, which was stirred at RT or 50° C. After slurry for 24 hours, the solids obtained were analyzed by XRPD.
smiles,measurement,setting,value
"C[C@H]1CCc2c(ccc(-c3cnn(C4CCNCC4)c3)c2OC2CCC2)N1C(=O)C1CC1.O=C(O)CCC(=O)O [Form I, (S)-(5-cyclobutoxy-2-methyl-6-(1-(piperidin-4-yl)-1H-pyrazol-4-yl)-3,4-dihydroquinolin-1(2H)-yl)(cyclopropyl)methanone succinate]",solid form after the DVS test,[1]; succinate,amorphous
same,hygroscopicity (DVS),[1]; succinate,high hygroscopicity
same,weight change before 60% RH (DVS),[1]; before 60% RH,minor weight change
same,Observation Initial,[2],Little solid
same,Observation 2 hrs,[2],Clear
same,stability under ambient conditions compared to Form G,[3]; different aw,did not appear to have any stability
"C[C@H]1CCc2c(ccc(-c3cnn(C4CCNCC4)c3)c2OC2CCC2)N1C(=O)C1CC1.O=C(O)CCC(=O)O [Form B, (S)-(5-cyclobutoxy-2-methyl-6-(1-(piperidin-4-yl)-1H-pyrazol-4-yl)-3,4-dihydroquinolin-1(2H)-yl)(cyclopropyl)methanone succinate]",solid form after the DVS test,[1]; succinate,amorphous
same,hygroscopicity (DVS),[1]; succinate,highly hygroscopic; also recorded: high hygroscopicity
C[C@H]1CCc2c(ccc(-c3cnn(C4CCNCC4)c3)c2OC2CCC2)N1C(=O)C1CC1.O=C(O)CCC(=O)O [G],% Claim (275 nm),[4]; 25° C./60% RH,104% and 106% and 107% and 103%
same,% Purity (275 nm),[4]; 25° C./60% RH,98.84% and 98.86%
same,% Claim (275 nm),[4]; 40° C./75% RH,106% and 96.3% and 101%
same,% Purity (275 nm),[4]; 40° C./75% RH,98.51% and 98.33% and 97.37% and 96.72%
same,% Claim (275 nm),[4]; 50° C.,100% and 101% and 104%
same,% Purity (275 nm),[4]; 50° C.,98.69% and 97.37% and 97.79%
same,% Claim (275 nm),[4]; 50° C.*,98.1%
same,% Purity (275 nm),[4]; 50° C.*,94.24%
same,% Claim (275 nm),[4]; Post DVS,73.5%
same,% Purity (275 nm),[4]; Post DVS,98.91%
same,% Claim (275 nm),[4]; RT,106% and 103% and 107%
same,% Purity (275 nm),[4]; RT,98.85% and 98.88% and 98.82% and 98.86%
same,% Claim (275 nm),[4]; initial,102%
same,% Purity (275 nm),[4]; initial,98.84%
C[C@H]1CCc2c(ccc(-c3cnn(C4CCNCC4)c3)c2OC2CCC2)N1C(=O)C1CC1.O=C(O)/C=C/C(=O)O [Fumarate Form A],behaviour at high humidity (DVS),[1],deliquescent
same,solid form after the DVS test,[1],amorphous or jelly solids
"C[C@H]1CCc2c(ccc(-c3cnn(C4CCNCC4)c3)c2OC2CCC2)N1C(=O)C1CC1.O=C(O)CCC(=O)O [Form O, (S)-(5-cyclobutoxy-2-methyl-6-(1-(piperidin-4-yl)-1H-pyrazol-4-yl)-3,4-dihydroquinolin-1(2H)-yl)(cyclopropyl)methanone succinate]",solid form after the DVS test,[1]; succinate,amorphous
same,hygroscopicity (DVS),[1]; succinate,highly hygroscopic; also recorded: high hygroscopicity
same,Observation Initial,[2],Little solid
same,Observation 2 hrs,[2],Clear
same,solubility at 2 h,"[2]; thermodynamic from solid, water, stirring 2 hrs at 800 RPM",> 60 mg/mL
C[C@H]1CCc2c(ccc(-c3cnn(C4CCNCC4)c3)c2OC2CCC2)N1C(=O)C1CC1.O=C(O)/C=C/C(=O)O [Fumarate Form B],behaviour at high humidity (DVS),[1],deliquescent
same,solid form after the DVS test,[1],amorphous or jelly solids
C[C@H]1CCc2c(ccc(-c3cnn(C4CCNCC4)c3)c2OC2CCC2)N1C(=O)C1CC1.O=C(O)CCC(=O)O [Form I and Form G],Final Form,"[3]; H2O/IPAc (2.8:997.2, aw 0.18), 50° C.",Form G
same,Final Form,"[3]; H2O/IPAc (2.8:997.2, aw 0.20), RT",Form G
same,Final Form,"[3]; H2O/IPAc (6:994, aw 0.36), 50° C.",Form G
same,Final Form,"[3]; H2O/IPAc (6:994, aw 0.40), RT",Form G
same,Final Form,"[3]; H2O/IPAc (10:990, aw 0.55), 50° C.",Form G
same,Final Form,"[3]; H2O/IPAc (10:990, aw 0.59), RT",Form G
same,Final Form,"[3]; IPAc, 50° C.",Form G
same,Final Form,"[3]; IPAc, RT",Form G
C[C@H]1CCc2c(ccc(-c3cnn(C4CCNCC4)c3)c2OC2CCC2)N1C(=O)C1CC1.O=C(O)CCC(=O)O [Form G and Form O],"Results (solid form after slurry competition, XRPD)","[5]; IPAc, 50° C.",Form G
same,"Results (solid form after slurry competition, XRPD)","[5]; IPAc, RT",Form G
same,"Results (solid form after slurry competition, XRPD)","[5]; MTBE, 50° C.",Form G
same,"Results (solid form after slurry competition, XRPD)","[5]; MTBE, RT",Form G
C[C@H]1CCc2c(ccc(-c3cnn(C4CCNCC4)c3)c2OC2CCC2)N1C(=O)C1CC1.O=C(O)CCCCC(=O)O [Adipate Form A],behaviour at high humidity (DVS),[1],deliquescent
same,solid form after the DVS test,[1],amorphous or jelly solids
"C[C@H]1CCc2c(ccc(-c3cnn(C4CCNCC4)c3)c2OC2CCC2)N1C(=O)C1CC1.O=C(O)CCC(=O)O [Form M, (S)-(5-cyclobutoxy-2-methyl-6-(1-(piperidin-4-yl)-1H-pyrazol-4-yl)-3,4-dihydroquinolin-1(2H)-yl)(cyclopropyl)methanone succinate]",solid form after the DVS test,[1]; succinate,amorphous
same,hygroscopicity (DVS),[1]; succinate,highly hygroscopic; also recorded: high hygroscopicity
C[C@H]1CCc2c(ccc(-c3cnn(C4CCNCC4)c3)c2OC2CCC2)N1C(=O)C1CC1.O=C(O)/C=C/C(=O)O [Fumarate Form C],behaviour at high humidity (DVS),[1],deliquescent
same,solid form after the DVS test,[1],amorphous or jelly solids
C[C@H]1CCc2c(ccc(-c3cnn(C4CCNCC4)c3)c2OC2CCC2)N1C(=O)C1CC1.O=C(O)CCC(=O)O [A],% Claim (275 nm),[4]; 25° C./60% RH,98.3% and 99.8%
same,% Purity (275 nm),[4]; 25° C./60% RH,98.64% and 98.78%
same,% Claim (275 nm),[4]; initial,95.2%
same,% Purity (275 nm),[4]; initial,98.73%
"C[C@H]1CCc2c(ccc(-c3cnn(C4CCNCC4)c3)c2OC2CCC2)N1C(=O)C1CC1.O=C(O)CCC(=O)O [Form B, G and I]","Results (solid form after slurry turnover, XRPD)","[6]; IPAc, 50° C.",Form G
same,"Results (solid form after slurry turnover, XRPD)","[6]; IPAc, RT",Form G
same,"Results (solid form after slurry turnover, XRPD)","[6]; MTBE, 50° C.",Form G
same,"Results (solid form after slurry turnover, XRPD)","[6]; MTBE, RT",Form G
